We go through 16 molecules from publication PMC5949604.

The data set can be described thus: aziridine aldehyde dimer (S-serine-type dimer 3, parent) + tBuNC multicomponent (disrupted Ugi) head-to-tail macrocyclisation of N-terminal Pro peptides; linker inserts CH-CH-N between Pro N and C-terminal C=O (forms Pro N-C bond and C-terminal acyl aziridine N-C(=O) bond). Conditions: the molecule shown is the open-chain precursor, TFE, 100.0 mM.

For `CC(C)C[C@H](NC(=O)CNC(=O)[C@@H]1CCCN1)C(=O)NCC(=O)N[C@H](Cc1ccccc1)C(=O)O` [H-Pro-Gly-Leu-Gly-D-Phe-OH], for the setting “18-membered ring, 4.0 h”, the ring closure, isolated yield was determined as 0%.

Consider `CC(C)C[C@@H](NC(=O)CNC(=O)[C@@H]1CCCN1)C(=O)NCC(=O)N[C@H](CCCCNC(=O)OC(C)(C)C)C(=O)O` [H-Pro-Gly-D-Leu-Gly-D-Lys(Boc)-OH], for which the ring closure, isolated yield (18-membered ring, 6.0 h) was 0%.

As to `CC(C)C[C@H](NC(=O)[C@H](COC(C)(C)C)NC(=O)[C@@H]1CCCN1)C(=O)N[C@@H](Cc1ccc(OC(C)(C)C)cc1)C(=O)N[C@@H](Cc1ccccc1)C(=O)O` [H-Pro-Ser(tBu)-Leu-Tyr(tBu)-Phe-OH], the ring closure, isolated yield (18-membered ring, 4.0 h) came out at 22%.

Turning to `CC(C)C[C@H](NC(=O)[C@H](COC(C)(C)C)NC(=O)[C@@H]1CCCN1)C(=O)NCC(=O)N[C@@H](Cc1ccccc1)C(=O)O` [H-Pro-Ser(tBu)-Leu-Gly-Phe-OH], the ring closure, isolated yield (18-membered ring, 4.0 h) worked out at 49%.

Regarding `CC(C)C[C@H](NC(=O)[C@H](COC(C)(C)C)NC(=O)C[C@@H]1CCCN1)C(=O)N[C@@H](Cc1ccc(OC(C)(C)C)cc1)C(=O)N[C@@H](Cc1ccccc1)C(=O)O` [H-L-beta-homoPro-Ser(tBu)-Leu-Tyr(tBu)-Phe-OH], for the setting “19-membered ring”, the ring closure, isolated yield worked out at 0%.

Turning to `CC(C)C[C@H](NC(=O)CNC(=O)[C@@H]1CCCN1)C(=O)NCC(=O)N[C@@H](Cc1ccccc1)C(=O)O` [H-Pro-Gly-Leu-Gly-Phe-OH], the ring closure, isolated yield (18-membered ring, 4.0 h) turned out to be 34%.

For the molecule `O=C(CNC(=O)[C@@H]1CCCN1)N[C@@H](Cc1ccccc1)C(=O)O` [H-Pro-Gly-Phe-OH], the ring closure, isolated yield (12-membered ring, 4.0 h) was 0%.

Consider `CC(C)C[C@H](NC(=O)CNC(=O)[C@@H]1CCCN1)C(=O)NCC(=O)N[C@@H](CCCCNC(=O)OC(C)(C)C)C(=O)O` [H-Pro-Gly-Leu-Gly-Lys(Boc)-OH], for which, where the note is “18-membered ring, 6.0 h”, the ring closure, isolated yield is 23%.

Regarding `CC(C)C[C@H](NC(=O)CN(C)C(=O)[C@@H]1CCCN1)C(=O)NCC(=O)N[C@@H](Cc1ccccc1)C(=O)O` [H-Pro-Sar-Leu-Gly-Phe-OH], where the note is “18-membered ring”, the ring closure, isolated yield is 0%.

As for `CC(C)C[C@H](NC(=O)CNC(=O)C[C@@H]1CCCN1)C(=O)NCC(=O)N[C@H](Cc1ccccc1)C(=O)O` [H-L-beta-homoPro-Gly-Leu-Gly-D-Phe-OH], the ring closure, isolated yield (19-membered ring) worked out at 0%.

Turning to `CC(C)C[C@H](NC(=O)[C@H](C)NC(=O)[C@@H]1CCCN1)C(=O)NCC(=O)N[C@@H](Cc1ccccc1)C(=O)O` [H-Pro-Ala-Leu-Gly-Phe-OH], where the note is “18-membered ring, 4.0 h”, the ring closure, isolated yield was found to be 12%.

With `CC(C)C[C@H](NC(=O)[C@H](CC(C)C)N(C)C(=O)[C@@H]1CCCN1)C(=O)NCC(=O)N[C@@H](Cc1ccccc1)C(=O)O` [H-Pro-N-Me-Leu-Leu-Gly-Phe-OH], the ring closure, isolated yield (18-membered ring) was found to be 0%.

Take `CC(C)C[C@H](NC(=O)CNC(=O)[C@@H]1CCCN1)C(=O)N[C@@H](C)C(=O)N[C@@H](Cc1ccccc1)C(=O)O` [H-Pro-Gly-Leu-Ala-Phe-OH]: under “18-membered ring, 6.0 h”, the ring closure, isolated yield was found to be 9%.

Consider `CC(C)C[C@@H](NC(=O)CNC(=O)[C@@H]1CCCN1)C(=O)NCC(=O)N[C@@H](Cc1ccccc1)C(=O)O` [H-Pro-Gly-D-Leu-Gly-Phe-OH], for which the ring closure, isolated yield (18-membered ring, 4.0 h) worked out at 28%.

`CC(C)C[C@H](NC(=O)CNC(=O)[C@]1(C)CCCN1)C(=O)NCC(=O)N[C@H](Cc1ccccc1)C(=O)O` [H-L-alpha-MePro-Gly-Leu-Gly-D-Phe-OH]: where the note is “18-membered ring”, the ring closure, isolated yield worked out at 0%.

Turning to `CC(C)C[C@H](NC(=O)CNC(=O)[C@@H]1CCCN1)C(=O)N[C@@H](CCCCNC(=O)OC(C)(C)C)C(=O)O` [H-Pro-Gly-Leu-Lys(Boc)-OH], the ring closure, isolated yield (15-membered ring, 6.0 h) amounted to 0%.
